Data published in patent publication US20230416205A1, “COMPOUNDS, COMPOSITIONS, AND METHODS” (Denali Therapeutics Inc, priority 2020, published 2023).
Where two headings read alike, the source gives them in different places.

System: NLRP3
Assay: IL-1β secretion assay in PMA-differentiated, LPS/nigericin-stimulated THP-1 cells (384-well, ELISA read-out)
Type: cell-based, human
Outline: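 THP-1 cells differentiated with PMA (5 ng/mL, 40 h), primed in serum-free medium with 25 ng/mL LPS for 2 h, treated with compounds 1 h (0.5% DMSO), then stimulated with nigericin for 2 h at 37 °C. Supernatant IL-1β measured by ELISA; responses normalized to LPS+5 μM nigericin and LPS-only controls.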

[1] = Homo sapiens, THP-1, IL-1β secretion, PMA-differentiated THP-1 cells, LPS then nigericin stimulation, ELISA read at 450 nm, read-out: Activity
[2] = Homo sapiens, THP-1, Table 4, IL-1β secretion, LPS/nigericin-stimulated THP-1 cells, read-out: IC50
[3] = Table 4, IL-1β secretion, LPS/nigericin-stimulated THP-1 cells, read-out: IC50
[4] = IL-1β secretion, PMA-differentiated THP-1 cells, LPS then nigericin stimulation, ELISA read at 450 nm, read-out: Activity

| SMILES | IC50 [1] | IC50 [2] | IC50 [3] | IC50 [4] |
| --- | --- | --- | --- | --- |
| O=C(CN1CC2(CC2)c2cc(Br)ccc2C1=O)NC1CC(F)(F)C1 [Example 67, 2-(6-bromo-1-oxo-spiro[3H-isoquinoline-4,1′-cyclopropane]-2-yl)-N-(3,3-difluorocyclobutyl)acetamide] | < 10 µM | 8.75 µM | – | – |
| N#CC1CC(NC(=O)CN2CC3(CC3)c3cc(Br)ccc3C2=O)C1 (stereo not shown) [Example 65, 2-(6-bromo-1-oxo-spiro[3H-isoquinoline-4,1′-cyclopropane]-2-yl)-N-(3-cyanocyclobutyl)acetamide] | < 10 µM | 6.86 µM | – | – |
| N#Cc1ccc(NC(=O)CN2CC3(CC3)c3cc(Br)ccc3C2=O)nc1 [Example 72, 2-(6-bromo-1-oxospiro[3H-isoquinoline-4,1′-cyclopropane]-2-yl)-N-(5-cyanopyridin-2-yl)acetamide] | < 10 µM | 0.511 µM | – | – |
| O=C(CN1CC2(CC2)c2cc(C3(F)CC3)ccc2C1=O)Nc1ncc(F)cn1 [Example 255, 2-[6-(1-fluorocyclopropyl)-1-oxospiro[3H-isoquinoline-4,1′-cyclopropane]-2-yl]-N-(5-fluoropyrimidin-2-yl)acetamide] | < 10 µM | 0.148 µM | – | – |
| O=C(CN1CC2(CC2)c2cc(Br)ccc2C1=O)N[C@@H]1CCN(Cc2ccccc2)C1 [Example 355, N-[(3R)-1-benzylpyrrolidin-3-yl]-2-(6-bromo-1-oxospiro[3H-isoquinoline-4,1′-cyclopropane]-2-yl)acetamide] | – | 5.02 µM | – | – |
| COc1ncnc(NC(=O)CN2CC3(CC3)c3cc(Br)ccc3C2=O)c1F [Example 401, 2-(6-bromo-1-oxospiro[3H-isoquinoline-4,1′-cyclopropane]-2-yl)-N-(5-fluoro-6-methoxypyrimidin-4-yl)acetamide] | – | 1.89 µM | – | – |
| O=C(CN1CC2(CC2)c2cc(Br)ccc2C1=O)NC1CCN(c2cccnn2)CC1 [Example 387, 2-(6-bromo-1-oxospiro[3H-isoquinoline-4,1′-cyclopropane]-2-yl)-N-(1-pyridazin-3-ylpiperidin-4-yl)acetamide] | – | 5.29 µM | – | – |
| C=C(F)c1ccc2c(c1)[C@@]1(C[C@H]1F)CN(CC(=O)Nc1ncc(F)cn1)C2=O [Example 273] | < 10 µM | 0.059 µM | – | – |
| Cn1cc(NC(=O)CN2CC3(CC3)c3cc(Br)ccc3C2=O)ccc1=O [Example 73, 2-(6-bromo-1-oxo-spiro[3H-isoquinoline-4,1′-cyclopropane]-2-yl)-N-(1-methyl-6-oxo-3-pyridyl)acetamide] | 10 to 15 µM | 11.5 µM | – | – |
| CN1CCC(NC(=O)CN2CC3(CC3)c3cc(Br)ccc3C2=O)C1=O (stereo not shown) [Example 347, 2-(6-bromo-1-oxospiro[3H-isoquinoline-4,1′-cyclopropane]-2-yl)-N-(1-methyl-2-oxopyrrolidin-3-yl)acetamide] | – | 21.5 µM | – | – |
| CCC1(C)CN(CC(=O)Nc2ncccn2)C(=O)c2ccc(C(F)(F)F)cc21 (stereo not shown) [Example 30, 2-[4-ethyl-4-methyl-1-oxo-6-(trifluoromethyl)-3H-isoquinolin-2-yl]-N-pyrimidin-2-ylacetamide] | > 15 µM | 15.1 µM | – | – |
| N#Cc1cc(F)cnc1NC(=O)CN1CC2(CC2)c2cc(Br)ccc2C1=O [Example 392, 2-(6-bromo-1-oxospiro[3H-isoquinoline-4,1′-cyclopropane]-2-yl)-N-(3-cyano-5-fluoropyridin-2-yl)acetamide] | – | 5.7 µM | – | – |
| O=C(CN1CC2(CC2)c2c(ccc(I)c2F)C1=O)Nc1ncc(F)cn1 [Example 108, 2-(5-fluoro-6-iodo-1-oxospiro[3H-isoquinoline-4,1′-cyclopropane]-2-yl)-N-(5-fluoropyrimidin-2-yl)acetamide] | < 10 µM | 0.018 µM | – | – |
| O=C(CN1CC2(CC2)c2cc(Br)ccc2C1=O)Nc1ccccc1 [Example 127, 2-(6-bromo-1-oxospiro[3H-isoquinoline-4,1′-cyclopropane]-2-yl)-N-phenylacetamide] | < 10 µM | 1.67 µM | – | – |
| Cn1cnc2cc(NC(=O)CN3CC4(CC4)c4cc(Br)ccc4C3=O)ccc21 [Example 147, 2-(6-bromo-1-oxospiro[3H-isoquinoline-4,1′-cyclopropane]-2-yl)-N-(1-methylbenzimidazol-5-yl)acetamide] | < 10 µM | 8.12 µM | – | – |
| O=C(CN1CC2(CC2(F)F)c2c(ccc(Br)c2F)C1=O)Nc1ncc(C(F)(F)F)cn1 (single isomer, unassigned) [Example 324, 2-[6-bromo-1′,1′,5-trifluoro-1-oxospiro[3H-isoquinoline-4,2′-cyclopropane]-2-yl]-N-[5-(trifluoromethyl)pyrimidin-2-yl]acetamide] | – | – | 0.027 µM | – |
| O=C(CN1CC2(CC2)c2cc(Br)ccc2C1=O)NC1CC(c2ccccc2)C1 (stereo not drawn) [Example 427, 2-(6-bromo-1-oxospiro[3H-isoquinoline-4,1′-cyclopropane]-2-yl)-N-(3-trans-phenylcyclobutyl)acetamide] | – | 6.28 µM | – | – |

| SMILES | IC50 [1] | IC50 [2] | IC50 [3] | IC50 [4] |
| --- | --- | --- | --- | --- |
| C[C@H]1C[C@]12CN(CC(=O)Nc1ncc(F)cn1)C(=O)c1ccc(Br)cc12 (single isomer, unassigned) [Example 279, 2-[(2′s,4s)-6-bromo-2′-methyl-1-oxospiro[3H-isoquinoline-4,1′-cyclopropane]-2-yl]-N-(5-fluoropyrimidin-2-yl)acetamide] | > 15 µM | – | 22.4 µM | – |
| O=C(CN1CC2(CC2)c2cc(Br)ccc2C1=O)Nc1nc2cc(C(F)(F)F)ccn2n1 [Example 265, 2-(6-bromo-1-oxospiro[3H-isoquinoline-4,1′-cyclopropane]-2-yl)-N-[7-(trifluoromethyl)-[1,2,4]triazolo[1,5-a]pyridin-2-yl]acetamide] | < 10 µM | 0.335 µM | – | – |
| O=C(CN1CC2(CC2)c2cc(Br)ccc2C1=O)NC12CCC(CC1)CC2 [Example 56, N-(1-bicyclo[2.2.2]octanyl)-2-(6-bromo-1-oxo-spiro[3H-isoquinoline-4,1′-cyclopropane]-2-yl)acetamide] | < 10 µM | 7.92 µM | – | – |
| Cc1cc(C)nc(NC(=O)CN2CC3(CC3)c3cc(Br)ccc3C2=O)c1 [Example 150, 2-(6-bromo-1-oxospiro[3H-isoquinoline-4,1′-cyclopropane]-2-yl)-N-(4,6-dimethylpyridin-2-yl)acetamide] | < 10 µM | 2.1 µM | – | – |
| N#Cc1cnc(NC(=O)CN2CC3(CC3)c3c(ccc(Br)c3F)C2=O)c(F)c1 [Example 106, 2-(6-bromo-5-fluoro-1-oxospiro[3H-isoquinoline-4,1′-cyclopropane]-2-yl)-N-(5-cyano-3-fluoropyridin-2-yl)acetamide] | < 10 µM | 0.156 µM | – | – |
| O=C(CN1C[C@]2(C[C@H]2F)c2cc(Br)ccc2C1=O)Nc1ncc(C(F)(F)F)cn1 [Example 308, 2-[(2′R,4S)-6-bromo-2′-fluoro-1-oxospiro[3H-isoquinoline-4,1′-cyclopropane]-2-yl]-N-[5-(trifluoromethyl)pyrimidin-2-yl]acetamide] | – | 0.025 µM | – | – |
| Cc1noc(NC(=O)CN2CC3(CC3)c3cc(Br)ccc3C2=O)c1C [Example 115, 2-(6-bromo-1-oxospiro[3H-isoquinoline-4,1′-cyclopropane]-2-yl)-N-(3,4-dimethyl-1,2-oxazol-5-yl)acetamide] | > 15 µM | 15.4 µM | – | – |
| CC(F)c1ccc2c(c1)C1(CC1)CN(CC(=O)Nc1ncc(F)cn1)C2=O (stereo not shown) [Example 312, 2-[6-(1-fluoroethyl)-1-oxospiro[3H-isoquinoline-4,1′-cyclopropane]-2-yl]-N-(5-fluoropyrimidin-2-yl)acetamide] | – | 1.02 µM | – | – |
| CN1CCC(NC(=O)CN2CC3(CC3)c3cc(Br)ccc3C2=O)CC1=O (stereo not shown) [Example 22, 2-(6-bromo-1-oxo-spiro[3H-isoquinoline-4,1′-cyclopropane]-2-yl)-N-(1-methyl-2-oxo-4-piperidyl)acetamide] | 10 to 15 µM | 10.9 µM | – | – |
| O=C(CN1CC2(CC2)c2cc(F)ccc2C1=O)Nc1ncc(F)cn1 [Example 215, 2-(6-fluoro-1-oxospiro[3H-isoquinoline-4,1′-cyclopropane]-2-yl)-N-(5-fluoropyrimidin-2-yl)acetamide] | < 10 µM | 6.86 µM | – | – |
| Cc1c(NC(=O)CN2CC3(CC3)c3cc(Br)ccc3C2=O)nn2ccccc12 [Example 402, 2-(6-bromo-1-oxospiro[3H-isoquinoline-4,1′-cyclopropane]-2-yl)-N-(3-methylpyrazolo[1,5-a]pyridin-2-yl)acetamide] | – | 9.27 µM | – | – |
| O=C(CN1C[C@@]2(C[C@@H]2F)c2cc(C(F)(F)F)ccc2C1=O)Nc1ncccn1 (single isomer, unassigned) [Example 241, 2-[(2′s,4r)-2′-fluoro-1-oxo-6-(trifluoromethyl)spiro[3H-isoquinoline-4,1′-cyclopropane]-2-yl]-N-pyrimidin-2-ylacetamide] | – | – | 0.134 µM | < 10 µM |
| O=C(CN1CC(C(F)F)c2c(ccc(Br)c2F)C1=O)Nc1ncc(F)cn1 (single isomer, unassigned) [Example 296, 2-[6-bromo-4-(difluoromethyl)-5-fluoro-1-oxo-3,4-dihydroisoquinolin-2-yl]-N-(5-fluoropyrimidin-2-yl)acetamide] | – | – | 0.345 µM | < 10 µM |
| O=C(CN1CC2(CC2)c2cc(Br)ccc2C1=O)Nc1cc2ccccn2n1 [Example 383] | – | 1.23 µM | – | – |
| O=C(CN1CC2(CC2)c2cc(Br)ccc2C1=O)Nc1ncc(-n2cccn2)cn1 [Example 48, 2-(6-bromo-1-oxospiro[3H-isoquinoline-4,1′-cyclopropane]-2-yl)-N-(5-pyrazol-1-ylpyrimidin-2-yl)acetamide] | < 10 µM | 0.238 µM | – | – |
| O=C(CN1C[C@]2(C[C@H]2F)c2cc(Cl)ccc2C1=O)Nc1ncc(F)cn1 [Example 276] | < 10 µM | 0.079 µM | – | – |
